Assay results reported in ChEMBL document CHEMBL4613209, “Quinolone hybrids and their anti-cancer activities: An overview” (Eur J Med Chem, 2019).
In brackets after ≈: the same amount, converted by molar mass. Values belong to the compound of their own block, whether it stands above or below them.

What was measured:
[1] = tested on: HeLa; assay: Antiproliferative activity against human HeLa cells after 48 hrs by MTT assay; assay type: functional, cell-based
[2] = tested on: HCT-116; assay: Antiproliferative activity against human HCT116 cells after 48 hrs by MTT assay; assay type: functional, cell-based; settings: HCT-116, 48 h
[3] = tested on: A549; assay: Antiproliferative activity against human A549 cells after 48 hrs by MTT assay; assay type: functional, cell-based; settings: A549, 48 h
[4] = tested on: PANC-1; assay: Antiproliferative activity against human PANC1 cells after 48 hrs by MTT assay; assay type: functional, cell-based; settings: PANC-1, 48 h
[5] = biological target: Histone deacetylase; assay: Inhibition of HDAC (unknown origin); assay type: protein assay, Homo sapiens
[6] = tested on: MCF-10A; assay: Antiproliferative activity against human MCF10A cells by CCK8 assay; assay type: cell-based
[7] = tested on: HeLa; assay: Antiproliferative activity against human HeLa cells by CCK8 assay; assay type: functional, cell-based
[8] = tested on: MCF7; assay: Antiproliferative activity against human MCF7 cells by CCK8 assay; assay type: functional, cell-based
[9] = biological target: Tubulin; assay: Inhibition of tubulin polymerization (unknown origin); assay type: protein-complex assay, Homo sapiens
[10] = tested on: PC-3; assay: Antiproliferative activity against human PC3 cells by CCK8 assay; assay type: functional, cell-based
[11] = tested on: HepG2; assay: Antiproliferative activity against human HepG2 cells by CCK8 assay; assay type: functional, cell-based
[12] = tested on: A549; assay: Antiproliferative activity against human A549 cells by CCK8 assay; assay type: functional, cell-based
[13] = tested on: A549; assay: Cytotoxicity against human A549 cells assessed as reduction in cell viability; assay type: functional, cell-based
[14] = tested on: HCT-8; assay: Anticancer activity against human HCT8 cells; assay type: functional, cell-based
[15] = tested on: P388; assay: Cytotoxicity against doxorubicin resistant mouse P388 cells assessed as reduction in cell viability; assay type: functional, cell-based
[16] = tested on: P388; assay: Cytotoxicity against mouse P388 cells assessed as reduction in cell viability; assay type: functional, cell-based
[17] = tested on: P388; assay: Anticancer activity against doxorubicin resistant mouse P388 cells; assay type: functional, cell-based
[18] = tested on: HT-29; assay: Cytotoxicity against human HT-29 cells assessed as reduction in cell viability; assay type: functional, cell-based
[19] = tested on: HT-29; assay: Anticancer activity against human HT-29 cells; assay type: functional, cell-based
[20] = tested on: B16-F10; assay: Cytotoxicity against mouse B16F10 cells assessed as reduction in cell viability; assay type: functional, cell-based
[21] = tested on: P388; assay: Anticancer activity against mouse P388 cells; assay type: functional, cell-based
[22] = tested on: MCF7; assay: Anticancer activity against human MCF7 cells; assay type: functional, cell-based
[23] = tested on: B16-F10; assay: Anticancer activity against mouse B16F10 cells; assay type: functional, cell-based
[24] = tested on: A549; assay: Anticancer activity against human A549 cells; assay type: functional, cell-based
[25] = tested on: Lewis lung carcinoma cell line; assay: Anticancer activity against mouse LLC cells; assay type: functional, cell-based
[26] = tested on: HT-29; assay: Anticancer activity against human HT-29 cells by MTT assay; assay type: functional, cell-based
[27] = tested on: HepG2; assay: Anticancer activity against human HepG2 cells by MTT assay; assay type: functional, cell-based
[28] = tested on: HL-60; assay: Anticancer activity against human HL60 cells by MTT assay; assay type: functional, cell-based
[29] = tested on: NCI-H460; assay: Growth inhibition of human NCI-H460 cells; assay type: functional; settings: pooled result: one value given for 3 cell lines, strains, targets or settings
[30] = tested on: SiHa; assay: Growth inhibition of human SiHa cells after 48 hrs by SRB assay; assay type: functional
[31] = tested on: MDA-MB-231; assay: Growth inhibition of human MDA-MB-231 cells after 48 hrs by SRB assay; assay type: functional; settings: MDA-MB-231, 48 h

IC50 [5]: 21 to 850 nM
IC50 [7]: 300 to 12800 nM
IC50 [8]: 300 to 12800 nM
IC50 [9]: 1790 to 6360 nM
IC50 [10]: 300 to 12800 nM
IC50 [11]: 300 to 12800 nM
IC50 [12]: 300 to 12800 nM
Compound: C[C@H]1COc2c(N3CCN(C)CC3)c(F)cc3c(=O)c(C(=O)NCc4cn(CCCCCC(=O)NO)nn4)cn1c23
IC50 [6]: > 100000 nM

IC50 [5]: 21 to 850 nM
IC50 [7]: 300 to 12800 nM
IC50 [8]: 300 to 12800 nM
IC50 [9]: 1790 to 6360 nM
IC50 [10]: 300 to 12800 nM
IC50 [11]: 300 to 12800 nM
IC50 [12]: 300 to 12800 nM
Compound: C[C@H]1COc2c(N3CCN(C)CC3)c(F)cc3c(=O)c(C(=O)OCc4cn(CCCCCCC(=O)NO)nn4)cn1c23
IC50 [6]: > 100000 nM

IC50 [14]: 30 to 490 nM
IC50 [17]: 30 to 490 nM
IC50 [19]: 30 to 490 nM
IC50 [21]: 30 to 490 nM
IC50 [22]: 30 to 490 nM
IC50 [23]: 30 to 490 nM
IC50 [24]: 30 to 490 nM
IC50 [25]: 30 to 490 nM
Compound: CC(C)(C)c1cccc(NC2CCN(C3C(F)=Cc4c5n(cc(C(=O)O)c4=O)-c4ccccc4OC53)C2)c1 (stereo not given)
IC50 [13]: 0.011 to 0.59 µg/mL (≈ 0.0213 to 1.14 µM)
IC50 [15]: 0.011 to 0.59 µg/mL (≈ 0.0213 to 1.14 µM)
IC50 [16]: 0.011 to 0.59 µg/mL (≈ 0.0213 to 1.14 µM)
IC50 [18]: 0.011 to 0.59 µg/mL (≈ 0.0213 to 1.14 µM)
IC50 [20]: 0.011 to 0.59 µg/mL (≈ 0.0213 to 1.14 µM)

IC50 [5]: 21 to 850 nM
IC50 [7]: 300 to 4900 nM
IC50 [8]: 300 to 4900 nM
IC50 [9]: 1790 to 6360 nM
IC50 [10]: 300 to 4900 nM
IC50 [11]: 300 to 4900 nM
IC50 [12]: 300 to 4900 nM
Compound: C[C@H]1COc2c(N3CCN(C)CC3)c(F)cc3c(=O)c(C(=O)NCc4cn(CCCCCCC(=O)NO)nn4)cn1c23
IC50 [6]: > 100000 nM

IC50 [26]: 13100 to 88400 nM
IC50 [27]: 13100 to 88400 nM
IC50 [28]: 13100 to 88400 nM
Compound: CCOC(=O)c1cn(Cc2cn(-c3ccc([N+](=O)[O-])cc3)nn2)c2ccc(Cl)cc2c1=O

GI50 [29]: 10700 to 53700 nM
Compound: COc1ccc2[nH]c(=O)c3c4ccccc4oc3c2c1

GI50 [29]: 19000 nM
Compound: O=c1[nH]c2ccc(Cl)cc2c2[nH]c3ccccc3c12

IC50 [5]: 21 to 850 nM
IC50 [7]: 300 to 12800 nM
IC50 [8]: 300 to 12800 nM
IC50 [9]: 1790 to 6360 nM
IC50 [10]: 300 to 12800 nM
IC50 [11]: 300 to 12800 nM
IC50 [12]: 300 to 12800 nM
Compound: C[C@H]1COc2c(N3CCN(C)CC3)c(F)cc3c(=O)c(C(=O)OCc4cn(CCCCCC(=O)NO)nn4)cn1c23
IC50 [6]: > 100000 nM

GI50 [29]: 18200 nM
Compound: O=c1[nH]c2ccccc2c2[nH]cc(-c3ccccc3)c12

Further lines, the compound ahead of its results:

Compound: CCCN(CCC)Cc1cn(-c2cc3c(cc2F)c(=O)c(C(=O)NO)cn3C2CC2)nn1
IC50 [1]: > 10000 nM
IC50 [2]: > 10000 nM
IC50 [3]: > 10000 nM
IC50 [4]: > 10000 nM

Compound: CCN(CC)Cc1cn(-c2cc3c(cc2F)c(=O)c(C(=O)NO)cn3C2CC2)nn1
IC50 [1]: > 10000 nM
IC50 [2]: > 10000 nM
IC50 [3]: > 10000 nM
IC50 [4]: > 10000 nM

Compound: Cc1ccccc1NC1CCN(C2C(F)=Cc3c4n(cc(C(=O)O)c3=O)-c3ccccc3OC42)C1 (stereo not given)
IC50 [13]: 0.011 to 0.59 µg/mL (≈ 0.0232 to 1.25 µM)
IC50 [14]: 30 to 490 nM
IC50 [15]: 0.011 to 0.59 µg/mL (≈ 0.0232 to 1.25 µM)
IC50 [16]: 0.011 to 0.59 µg/mL (≈ 0.0232 to 1.25 µM)
IC50 [17]: 30 to 490 nM
IC50 [18]: 0.011 to 0.59 µg/mL (≈ 0.0232 to 1.25 µM)
IC50 [19]: 30 to 490 nM
IC50 [20]: 0.011 to 0.59 µg/mL (≈ 0.0232 to 1.25 µM)
IC50 [21]: 30 to 490 nM
IC50 [22]: 30 to 490 nM
IC50 [23]: 30 to 490 nM
IC50 [24]: 30 to 490 nM
IC50 [25]: 30 to 490 nM

Compound: Cc1cccc(C)c1NC1CCN(C2C(F)=Cc3c4n(cc(C(=O)O)c3=O)-c3ccccc3OC42)C1 (stereo not given)
IC50 [13]: 0.011 to 0.59 µg/mL (≈ 0.0226 to 1.21 µM)
IC50 [14]: 30 to 490 nM
IC50 [15]: 0.011 to 0.59 µg/mL (≈ 0.0226 to 1.21 µM)
IC50 [16]: 0.011 to 0.59 µg/mL (≈ 0.0226 to 1.21 µM)
IC50 [17]: 30 to 490 nM
IC50 [18]: 0.011 to 0.59 µg/mL (≈ 0.0226 to 1.21 µM)
IC50 [19]: 30 to 490 nM
IC50 [20]: 0.011 to 0.59 µg/mL (≈ 0.0226 to 1.21 µM)
IC50 [21]: 30 to 490 nM
IC50 [22]: 30 to 490 nM
IC50 [23]: 30 to 490 nM
IC50 [24]: 30 to 490 nM
IC50 [25]: 30 to 490 nM

Compound: COc1ccc2c(c1)[nH]c(=O)c1c3ccccc3oc21
GI50 [29]: 10700 to 53700 nM

Compound: O=c1[nH]c2ccccc2c2[nH]c(-c3ccccc3)c(-c3ccccc3)c12
GI50 [29]: 27500 nM

Compound: CCOC(=O)c1cn(Cc2cn(-c3ccc(C)cc3)nn2)c2ccc(F)cc2c1=O
IC50 [26]: 13100 to 88400 nM
IC50 [27]: 13100 to 88400 nM
IC50 [28]: 13100 to 88400 nM

Compound: CCn1cc(C(=O)O)c(=O)c2cnc(N3CCN(C(=O)CCSc4nnnn4-c4ccc(F)c(F)c4F)CC3)nc21
GI50 [30]: ≤ 100 nM
GI50 [31]: ≤ 100 nM

Compound: O=C(O)c1cn(C2CC2)c2cc(N3CCN(C(=O)CCSc4nnnn4Cc4ccccc4)CC3)c(F)cc2c1=O
GI50 [30]: ≤ 100 nM
GI50 [31]: ≤ 100 nM

Compound: O=C(O)c1cn2c3c(c1=O)C=C(F)C(N1CCC(Nc4ccccc4)C1)C3Oc1ccccc1-2 (stereo not given)
IC50 [13]: 0.011 to 0.59 µg/mL (≈ 0.0239 to 1.28 µM)
IC50 [14]: 30 to 490 nM
IC50 [15]: 0.011 to 0.59 µg/mL (≈ 0.0239 to 1.28 µM)
IC50 [16]: 0.011 to 0.59 µg/mL (≈ 0.0239 to 1.28 µM)
IC50 [17]: 30 to 490 nM
IC50 [18]: 0.011 to 0.59 µg/mL (≈ 0.0239 to 1.28 µM)
IC50 [19]: 30 to 490 nM
IC50 [20]: 0.011 to 0.59 µg/mL (≈ 0.0239 to 1.28 µM)
IC50 [21]: 30 to 490 nM
IC50 [22]: 30 to 490 nM
IC50 [23]: 30 to 490 nM
IC50 [24]: 30 to 490 nM
IC50 [25]: 30 to 490 nM

Compound: COc1ccc(NC2CCN(C3C(F)=Cc4c5n(cc(C(=O)O)c4=O)-c4ccccc4OC53)C2)cc1 (stereo not given)
IC50 [13]: 0.011 to 0.59 µg/mL (≈ 0.0225 to 1.21 µM)
IC50 [14]: 30 to 490 nM
IC50 [15]: 0.011 to 0.59 µg/mL (≈ 0.0225 to 1.21 µM)
IC50 [16]: 0.011 to 0.59 µg/mL (≈ 0.0225 to 1.21 µM)
IC50 [17]: 30 to 490 nM
IC50 [18]: 0.011 to 0.59 µg/mL (≈ 0.0225 to 1.21 µM)
IC50 [19]: 30 to 490 nM
IC50 [20]: 0.011 to 0.59 µg/mL (≈ 0.0225 to 1.21 µM)
IC50 [21]: 30 to 490 nM
IC50 [22]: 30 to 490 nM
IC50 [23]: 30 to 490 nM
IC50 [24]: 30 to 490 nM
IC50 [25]: 30 to 490 nM
